# Patent US20190225650A1, “PEPTIDOMIMETIC MACROCYCLES AND USE THEREOF IN REGULATING HIF1ALPHA” (AILERON THERAPEUTICS, INC., priority 2013, published 2019)
# Bridge positions count the residues as written; N and C are the ends. Square brackets hold non-standard residues; d marks the D form. Peptide text beside a SMILES is read from it. R8 = C=CCCCCCC[C@@](C)(N)C(=O)O; S5 = C=CCCC[C@](C)(N)C(=O)O; Nle = CCCC[C@H](N)C(=O)O; Dap = NC[C@H](N)C(=O)O
# Test system: HRE-bla ME-180 cells
# Assay: Reporter gene assay (HRE-bla ME-180 HIF reporter, GeneBLAzer)
# Type: cell-based, human
# Conditions: for EC50: 24 hour normoxia
# Method in brief: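 A FRET β-lactamase readout of HIF transcription was used. After compound treatment in 0.3% DMSO/media under normoxic conditions, 20 μl of 6× LiveBLAzer-FRET B/G (CCF4-AM) substrate was added. Plates sat 3 hr at room temperature in the dark and were read at 409 Ex/460Em and 409Ex/530Em on a Synergy 2. Inhibition was compared against DMSO vehicle controls, with chetomin as positive control.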
EC50 [µM],Compound,18 h Avg % max inhibition at top conc (HIF Rptr-24 hrs normoxia) (μM)
> 30,CCCC[C@H](NC(=O)[C@H](CC(C)C)NC(=O)[C@@H](NC(=O)[C@H](CCC(=O)O)NC(=O)[C@H](CCC(=O)O)NC(=O)[C@H](CC(=O)O)NC(=O)[C@@H](NC(=O)[C@H](Cc1ccccc1)NC(C)=O)[C@@H](C)CC)C(C)C)C(=O)N[C@@]1(C)CCCC=CCCC[C@@](C)(C(=O)N[C@@H](CCCC)C(=O)N[C@@H](C)C(=O)N[C@@H](CC(C)C)C(=O)N[C@@H](CC(=O)O)C(=O)N[C@@H](CCCNC(=N)N)C(=O)N[C@H](C(=O)N[C@@H](CCC(=O)O)C(N)=O)[C@@H](C)CC)NC(=O)[C@H]([C@@H](C)CC)NC(=O)[C@H](C(C)C)NC(=O)[C@H](CC(C)C)NC1=O [SP-43] (Ac-FIDEEVL[Nle][S5]LVI[S5][Nle]ALDRIE-NH2; staple 9-13),+++ (≤25 but <50: +++)
15 to 30,CCCC[C@H](NC(=O)[C@H](CC(C)C)NC(=O)[C@@H](NC(=O)[C@H](CCC(=O)O)NC(=O)[C@H](CCC(=O)O)NC(=O)[C@H](CC(=O)O)NC(=O)[C@@H](NC(=O)[C@H](Cc1ccccc1)NC(C)=O)[C@@H](C)CC)C(C)C)C(=O)N[C@@]1(C)CCCC=CCCC[C@@](C)(C(=O)N[C@@H](CCCC)C(=O)N[C@@H](C)C(=O)N[C@@H](CC(C)C)C(=O)N[C@@H](CC(=O)O)C(=O)N[C@@H](CCCNC(=N)N)C(=O)N[C@H](C(N)=O)[C@@H](C)CC)NC(=O)[C@H]([C@@H](C)CC)NC(=O)[C@H](CO)NC(=O)[C@H](CC(C)C)NC1=O [SP-52] (Ac-FIDEEVL[Nle][S5]LSI[S5][Nle]ALDRI-NH2; staple 9-13),++++ (≥50: ++++)
> 30,CC[C@H](C)[C@H](NC(=O)[C@H](Cc1ccccc1)NC(C)=O)C(=O)N[C@@H](CC(=O)O)C(=O)N[C@@H](CCC(=O)O)C(=O)N[C@@H](CCC(=O)O)C(=O)N[C@H](C(=O)N[C@]1(C)CCCCCCC=CCCC[C@@](C)(C(=O)NCC(=O)N[C@@H](CC(C)C)C(=O)N[C@@H](CC(=O)O)C(=O)N[C@@H](CCCNC(=N)N)C(=O)N[C@H](C(=O)N[C@@H](CCCCN)C(=O)N[C@@H](CCC(=O)O)C(=O)N[C@@H](CC(C)C)C(=O)N2CCC[C@H]2C(=O)N[C@@H](CCC(=O)O)C(=O)N[C@@H](CC(C)C)C(=O)N[C@@H](Cc2c[nH]c3ccccc23)C(=O)N[C@@H](CC(C)C)C(N)=O)[C@@H](C)CC)NC(=O)[C@H](CCC(=O)O)NC(=O)[C@H]([C@@H](C)CC)NC(=O)[C@H](C(C)C)NC(=O)[C@H](CC(C)C)NC(=O)[C@H](CO)NC(=O)[C@H](CCSC)NC1=O)C(C)C [SP-84] (Ac-FIDEEV[R8]MSLVIE[S5]GLDRIKELPELWL-NH2; staple 7-14),+ (<10: +)
> 30,CCCC[C@H](NC(=O)[C@H](CC(C)C)NC(=O)[C@@H](NC(=O)[C@H](CCC(=O)O)NC(=O)[C@H](CCC(=O)O)NC(=O)[C@H](CC(=O)O)NC(=O)[C@@H](NC(=O)[C@H](Cc1ccccc1)NC(=O)[C@H](CC(=O)O)NC(C)=O)[C@@H](C)CC)C(C)C)C(=O)N[C@@]1(C)CCCC=CCCC[C@@](C)(C(=O)N[C@@H](CCCC)C(=O)N[C@@H](C)C(=O)N[C@@H](CC(C)C)C(=O)N[C@@H](CC(=O)O)C(=O)N[C@@H](CCCNC(=N)N)C(=O)N[C@H](C(N)=O)[C@@H](C)CC)NC(=O)[C@H]([C@@H](C)CC)NC(=O)[C@H](C(C)C)NC(=O)[C@H](CC(C)C)NC1=O [SP-29] (Ac-DFIDEEVL[Nle][S5]LVI[S5][Nle]ALDRI-NH2; staple 10-14),++ (≤10 but <25: ++)
≤ 5,CCCC[C@H](NC(=O)[C@H](C)NC(=O)[C@@H](NC(=O)[C@H](CCC(=O)O)NC(=O)[C@H](CCC(=O)O)NC(=O)[C@H](CC(=O)O)NC(=O)[C@@H](NC(=O)[C@H](Cc1ccccc1)NC(C)=O)[C@@H](C)CC)C(C)C)C(=O)N[C@@]1(C)CCCC=CCCC[C@@](C)(C(=O)N[C@@H](CCCC)C(=O)N[C@@H](C)C(=O)N[C@@H](CC(C)C)C(=O)N[C@@H](CC(=O)O)C(=O)N[C@@H](CCCNC(=N)N)C(=O)N[C@H](C(N)=O)[C@@H](C)CC)NC(=O)[C@H]([C@@H](C)CC)NC(=O)[C@H](C(C)C)NC(=O)[C@H](CC(C)C)NC1=O [SP-15] (Ac-FIDEEVA[Nle][S5]LVI[S5][Nle]ALDRI-NH2; staple 9-13),++++ (≥50: ++++)
5 to 15,CC[C@H](C)[C@H](NC(=O)[C@H](CCCNC(=N)N)NC(=O)[C@H](CC(=O)O)NC(=O)[C@H](CC(C)C)NC(=O)[C@H](C)NC(=O)[C@H](C)NC(=O)[C@]1(C)CCCC=CCCC[C@](C)(NC(=O)[C@H](C)NC(=O)[C@H](CC(C)C)NC(=O)[C@@H](NC(=O)[C@H](CCC(=O)O)NC(=O)[C@H](CCC(=O)O)NC(=O)[C@H](CC(=O)O)NC(=O)[C@@H](NC(=O)[C@H](Cc2ccccc2)NC(C)=O)[C@@H](C)CC)C(C)C)C(=O)N[C@@H](CC(C)C)C(=O)N[C@@H](C(C)C)C(=O)N[C@@H]([C@@H](C)CC)C(=O)N1)C(N)=O [SP-26] (Ac-FIDEEVLA[S5]LVI[S5]AALDRI-NH2; staple 9-13),++++ (≥50: ++++)
5 to 15,CCCC[C@H](NC(=O)[C@H](CC(C)C)NC(=O)[C@@H](NC(=O)[C@H](CCC(=O)O)NC(=O)[C@H](CCC(=O)O)NC(=O)[C@H](CC(=O)O)NC(=O)[C@@H](NC(=O)[C@H](Cc1ccccc1)NC(C)=O)[C@@H](C)CC)C(C)C)C(=O)N[C@@]1(C)CCCC=CCCC[C@@](C)(C(=O)N[C@@H](CCCC)C(=O)N[C@@H](C)C(=O)N[C@@H](CC(C)C)C(=O)N[C@@H](CC(=O)O)C(=O)N[C@@H](CCCNC(=N)N)C(=O)N[C@H](C(N)=O)[C@@H](C)CC)NC(=O)[C@H]([C@@H](C)CC)NC(=O)[C@H](C(C)C)NC(=O)[C@H](CO)NC1=O [SP-51] (Ac-FIDEEVL[Nle][S5]SVI[S5][Nle]ALDRI-NH2; staple 9-13),+++ (≤25 but <50: +++)
5 to 15,CCCC[C@H](NC(=O)[C@H](CC(C)C)NC(=O)[C@@H](NC(=O)[C@H](CCC(=O)O)NC(=O)[C@H](CCC(=O)O)NC(=O)[C@H](CC(=O)O)NC(=O)[C@@H](NC(=O)[C@H](Cc1ccccc1)NC(C)=O)[C@@H](C)CC)C(C)C)C(=O)N[C@@]1(C)CCCC=CCCC[C@@](C)(C(=O)N[C@@H](CCCC)C(=O)N[C@@H](C)C(=O)N[C@@H](CC(C)C)C(=O)N[C@@H](CC(=O)O)C(=O)N[C@@H](C)C(=O)N[C@H](C(N)=O)[C@@H](C)CC)NC(=O)[C@H]([C@@H](C)CC)NC(=O)[C@H](C(C)C)NC(=O)[C@H](CC(C)C)NC1=O [SP-24] (Ac-FIDEEVL[Nle][S5]LVI[S5][Nle]ALDAI-NH2; staple 9-13),++++ (≥50: ++++)
> 30,CCCC[C@H](NC(=O)[C@H](CC(C)C)NC(=O)[C@@H](NC(=O)[C@H](CCC(=O)O)NC(=O)[C@H](CCC(=O)O)NC(=O)[C@H](CC(=O)O)NC(=O)[C@H](CO)NC(=O)[C@H](Cc1ccccc1)NC(C)=O)C(C)C)C(=O)N[C@@]1(C)CCCC=CCCC[C@@](C)(C(=O)N[C@@H](CCCC)C(=O)N[C@@H](C)C(=O)N[C@@H](CC(C)C)C(=O)N[C@@H](CC(=O)O)C(=O)N[C@@H](CCCNC(=N)N)C(=O)N[C@H](C(N)=O)[C@@H](C)CC)NC(=O)[C@H]([C@@H](C)CC)NC(=O)[C@H](C(C)C)NC(=O)[C@H](CC(C)C)NC1=O [SP-45] (Ac-FSDEEVL[Nle][S5]LVI[S5][Nle]ALDRI-NH2; staple 9-13),++ (≤10 but <25: ++)
≤ 5,CCCC[C@H](NC(=O)[C@]1(C)CCCC=CCCC[C@](C)(NC(=O)[C@H](CO)NC(=O)[C@H](CC(C)C)NC(=O)[C@@H](NC(=O)[C@H](CCC(=O)O)NC(=O)[C@H](CCC(=O)O)NC(=O)[C@H](CC(=O)O)NC(=O)[C@@H](NC(=O)[C@H](Cc2ccccc2)NC(C)=O)[C@@H](C)CC)C(C)C)C(=O)N[C@@H](CC(C)C)C(=O)N[C@@H](C(C)C)C(=O)N[C@@H]([C@@H](C)CC)C(=O)N1)C(=O)N[C@@H](C)C(=O)N[C@@H](CC(C)C)C(=O)N[C@@H](CC(=O)O)C(=O)N[C@@H](CCCNC(=N)N)C(=O)N[C@H](C(N)=O)[C@@H](C)CC [SP-50] (Ac-FIDEEVLS[S5]LVI[S5][Nle]ALDRI-NH2; staple 9-13),++++ (≥50: ++++)
> 30,CCCC[C@H](NC(=O)[C@H](CC(C)C)NC(=O)[C@@H](NC(=O)[C@H](CCC(=O)O)NC(=O)[C@H](CCC(=O)O)NC(=O)[C@H](CC(=O)O)NC(=O)[C@@H](NC(=O)[C@H](Cc1ccccc1)NC(C)=O)[C@@H](C)CC)C(C)C)C(=O)N[C@@]1(C)CCCC=CCCC[C@@](C)(C(=O)N[C@@H](CCCC)C(=O)N[C@@H](C)C(=O)N[C@@H](CC(C)C)C(=O)N[C@@H](CC(=O)O)C(=O)N[C@@H](CCCNC(=N)N)C(=O)N[C@@H](CCC(=O)O)C(N)=O)NC(=O)[C@H]([C@@H](C)CC)NC(=O)[C@H](C(C)C)NC(=O)[C@H](CC(C)C)NC1=O [SP-42] (Ac-FIDEEVL[Nle][S5]LVI[S5][Nle]ALDRE-NH2; staple 9-13),++ (≤10 but <25: ++)
> 30,CCCC[C@H](NC(=O)[C@H](CC(C)C)NC(=O)[C@H](CN)NC(=O)[C@H](CCC(=O)O)NC(=O)[C@H](CCC(=O)O)NC(=O)[C@H](CC(=O)O)NC(=O)[C@@H](NC(=O)[C@H](Cc1ccccc1)NC(C)=O)[C@@H](C)CC)C(=O)N[C@@]1(C)CCCC=CCCC[C@@](C)(C(=O)N[C@@H](CCCC)C(=O)N[C@@H](C)C(=O)N[C@@H](CC(C)C)C(=O)N[C@@H](CC(=O)O)C(=O)N[C@@H](CCCNC(=N)N)C(=O)N[C@H](C(N)=O)[C@@H](C)CC)NC(=O)[C@H]([C@@H](C)CC)NC(=O)[C@H](C(C)C)NC(=O)[C@H](CC(C)C)NC1=O [SP-64] (Ac-FIDEE[Dap]L[Nle][S5]LVI[S5][Nle]ALDRI-NH2; staple 9-13),+ (<10: +)
